Laboratory results from US6407139B1, “Neovascularization inhibitor” (Kissei Pharmaceutical Co., Ltd., priority 1996, dated 2002).

Legend:
Assay type in all cases: cell-based
[1] = test system: human microvascular endothelial cells; assay: Inhibition of proliferation of human microvascular endothelial cells; conditions: normal human dermal microvascular endothelial cells, 2 days incubation with various concentrations, FIG. 1
Protocol: Normal human dermal microvascular endothelial cells (Cell Systems Corporation) were subcultured in a medium (MVE medium, Cell Systems Corporation) for endothelial cell culture and used for the study. At the logarithmic growth phase, the medium was aspirated and cells were washed with phosphate-buffered saline (PBS(−)) which was added gentlely. Then, the PBS(−) was aspirated, an aliquot of 0.25% trypsin solution containing 0.02% EDTA was added to the culture plate, and the morphology of cells was observed under a phase-contrast microscopy. When cells were going to be round, an equal value of MVE medium was added to the trypsin solution to stop the action of trypsin. Attached cells were harvested from the plate by pipetting the medium using a slender pasture pipette. […] Number of viable cells in an aliquot of the suspension was counted under a phase-contrast microscopy using a hemocytometer. […]
Cell suspension (1 ml) was added to collagen-coated 6-well plate(Toyobo Engineering Co., Ltd.) and cultured at 37° C. under a humidified atmosphere of 5% CO2 in air. […] After harvesting cells from the plate by pipetting using a pasture pipete, number of viable cells was counted using a hemocytometer.
(§1) Mean and standard variation value of each group were calculated. […]

[2] = test system: human microvascular endothelial cells; assay: Inhibition of chemotaxis of human microvascular endothelial cells to VEGF; conditions: chemotaxis to 100 ng/ml VEGF, 5 hours, 96-well micro chemotaxis chamber, FIG. 2
Protocol: According to the method of Example 1 (1), human microvascular endothelial cells were cultured to prepare a cell suspension. Number of viable cells was counted under a phase-contrast microscopy using a hemocytometer and cell concentration was adjusted to 2×10^4 cells/ml.
Tranilast was added to 1% aqueous sodium bicarbonate solution to prepare 0.55% solution and dissolved by warming at 70° C. The solution was sterilized with millipore filter and diluted with DMEM+Ham (1:1) medium to a prescribed final concentration.
Chemotaxis of human dermal microvascular endothelial cells (prepared in (1)) to vascular endothelial growth factor (VEGF) was studied using a 96-well micro chemotaxis chamber (Neuro Probe Inc.). An aliquot (32 μl) of DMEM+Ham (1:1) medium containing 100 ng/ml of VEGF, 0.1% bovine serum and various concentrations of Tranilast was added to the lower cavity of the chemotaxis chamber. An aliquot (50 μl) of medium containing cell suspension and Tranilast was added to the upper cavity of the chamber. Polycarbonate filter (10 μm thickness with 8 μm pore size; Neuro Probe Inc.) coated with type-1 collagen was used for the chemotaxis membrane. […] Number of migrated cells was counted in 5 random fields at ×400 magnification under a phase-contrast microscopy and mean chemotaxis cell number was calculated.
as §1

[3] = test system: human microvascular endothelial cells; assay: Tube formation of human microvascular endothelial cells on matrigel (number of formed network); conditions: 18 hours incubation, various concentrations, FIG. 3
Protocol: (§2) According to the method of Example 1 (1), human microvascular endothelial cells were cultured to prepare a cell suspension. Number of viable cells was counted under a phase-contrast microscopy using a hemocytometer and cell concentration was adjusted to 4×10^4 cells/ml.
Tranilast was added to 1% aqueous sodium bicarbonate solution to prepare 0.5% solution and dissolved by warming at 70° C. The solution was sterilized with millipore filter and diluted with MVE medium to a prescribed final concentration.
An aliquot (0.25 ml) of matrigel (10 mg/ml, Becton Dickinson Labware) was added to a 24-well culture plate (Corning) and was then allowed to solidify by incubation at 37° C. for 1 hour. Suspension (0.25 ml) of human microvascular endothelial cells (4×10^4 cells) and MVE medium (0.25 ml) containing various concentrations of Tranilast were added onto the gel.

[4] = test system: human microvascular endothelial cells; assay: Tube formation of human microvascular endothelial cells on matrigel (length of tube structures); conditions: 18 hours incubation, various concentrations, FIG. 4
Protocol: as §2
Tranilast was added to 1% aqueous sodium bicarbonate solution to prepare 1.0% solution and dissolved by warming at 70° C. The solution was sterilized with millipore filter and diluted with MVE medium to a prescribed final concentration.
An aliquot (0.25 ml) of matrigel (10 mg/ml, Becton Dickinson Labware) was added to a 24-well culture plate (Corning) and was then allowed to solidify by incubation at 37° C. for 1 hour. Suspension (0.25 ml) of human microvascular endothelial cells (4×10^4 cells) and MVE medium (0.25 ml) containing various concentrations of Tranilast were added onto the gel. After 18 hours incubation at 37° C., 5 random fields of one well were photographed at ×40 magnification using a phase-contrast microscopy. The lengths of the tube structures were measured and the mean value was calculated.

SMILES: COc1ccc(/C=C/C(=O)Nc2ccccc2C(=O)O)cc1OC [Tranilast, N-(3,4-Dimethoxycinnamoyl)anthranilic acid]
- proliferation of human microvascular endothelial cells (number of viable cells) [1]: significantly suppressed
- chemotaxis of human microvascular endothelial cells (number of migrated cells) [2]: significantly suppressed
- number of the formed network (tube formation) [3]: significantly reduced in a concentration-dependent manner
- length of the tube structure (tube formation) [4]: significantly reduced in a concentration-dependent manner
